From patent publication US11319300B2, “Polyfluoro-substituted aromatic heterocyclic derivative, pharmaceutical composition containing same, and applications thereof” (ZHEJIANG UNIVERSITY, priority 2017, dated 2022) come the findings set out here.

The IC50 is the concentration that gives 50% inhibition.

Structures are written as SMILES. Where a name gives a salt, the structure may show the parent alone. Marks after values point to notes of the source that are not given here.

One assay concerns HGC27. Nature of the assay: Tumour cell proliferation inhibition, MTT assay, HGC27. Type of assay: cell-based, human.
A further assay deals with 786-O. Nature of the assay: Tumour cell proliferation inhibition, MTT assay, 786-O. It is filed as cell-based, human. (Tetrazolium assays rely on reduction of a dye to a coloured formazan, in cell work by metabolically active cells.)
The target in a further assay is T1, AKT1/PKBα (Homo sapiens, UniProt P31749).
T1 construct: purchased
T1 sequence (P31749 whole entry): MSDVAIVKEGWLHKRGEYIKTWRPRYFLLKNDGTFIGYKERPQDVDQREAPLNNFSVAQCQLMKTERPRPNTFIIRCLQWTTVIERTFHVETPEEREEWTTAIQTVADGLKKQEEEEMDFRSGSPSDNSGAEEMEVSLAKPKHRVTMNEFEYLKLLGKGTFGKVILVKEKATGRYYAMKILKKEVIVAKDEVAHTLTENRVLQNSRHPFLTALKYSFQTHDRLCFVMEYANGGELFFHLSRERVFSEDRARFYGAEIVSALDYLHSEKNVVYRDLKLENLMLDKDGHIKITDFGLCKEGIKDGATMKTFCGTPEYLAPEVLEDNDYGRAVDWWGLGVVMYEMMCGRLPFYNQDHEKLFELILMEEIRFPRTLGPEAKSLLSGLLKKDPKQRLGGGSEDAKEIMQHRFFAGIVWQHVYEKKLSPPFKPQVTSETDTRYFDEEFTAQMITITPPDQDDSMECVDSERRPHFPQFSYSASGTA
Nature of the assay: Akt1 enzyme inhibitory activity, AKT1/PKBα KinEASE FP Fluorescein Green Assay. Type of assay: biochemical. The settings on record: fluorescence polarization kit assay; read-out: Akt1 IC50 (grade). On the procedure:
(§1) Compound AZD5363 (NCT02208375, NCT02208375, NCT01625286), which have entered the clinical phase II study, was used as a positive control, and the compound was assayed against common tumour cell lines (human ovarian cancer cell line OVCAR-8 and human colon cancer cell line HCT-116) by MTT assay, at the same time, the akt1 enzyme inhibitory activity (IC50) was evaluated using a commercial Akt1 kit.
2) Test method for the inhibitory activity of the compound of the present invention against Akt1 enzyme:
The AKT1/PKBα KinEASE™ FP Fluorescein Green Assay (Kinase Green Fluorescence Detection System) was used to detect the inhibitory activity of the compound on AKT1/PKBα.
Fluorescence polarization detection protein kinase B employs the principle of a competitive reaction: a fluorescently labeled phosphorylated tracer and an unlabeled phosphorylated product produced by the reaction of protein kinase B will compete with the anti-serine antibody for binding. In a reaction mixture […], when a part of the fluorescent tracer binds to the antibody, it causes a higher polarization value. However, in the reaction solution mixture containing the phosphorylated product, less tracer binds to the antibody (the fluorescent tracer was replaced from the antibody) and the emitted signal was depolarized. Therefore, the change in polarization was directly related to the activity of protein kinase B in the reaction.
The compound of the present invention and the positive control AZD5363 were dissolved in dimethyl sulfoxide (DMSO) and diluted to a concentration of 50 μM. At room temperature, 0.25 μl of the compound sample and the positive control at a concentration of 50 μM were taken and added to the 384-well plate, and three parallel wells were set for each sample, and then 10 μl of STK Substrate 3, Working Solution, 5 μl AKT1/PKBα Working Solution, 10 μl ATP Working Solution were added to each sample well plate with vibrating gently and shaking for a few minutes. The reaction starts after 10 μl of ATP Working Solution was added to the well, and the reaction was timed at room temperature for 1 hour. After one hour, 5 μl of STK Stop Mix and 5 μl of STK Antibody Mix were added to each well respectively to stop the reaction. After the addition completes, it was allowed to stand at room temperature for four hours, and the polarization value of the sample was detected by the fluorescence polarization of the microplate reader (it was effective to detect its signal within 24 hours), and the inhibition rate of the compound was calculated by the polarization value, and then IC50 was calculated.
Four sets of controls were set in the experiment, namely Buffer Control Wells, Tracer Control Wells, No Enzyme Wells, and a blank dimethyl sulfoxide control. The resulting data was used to calculate the inhibition rate.
The activity of the compound was divided into three grades according to the size of the IC50 of the Akt inhibitory activity: “+++”, 1 nM<IC50<10 nM; “++”, 10 nM<IC50<50 nM; “+”, 50 nM<IC50.
On the technique in general: In fluorescence polarisation assays a small probe gives low polarisation when free and higher when bound to something large.

The test system of another assay is HCT-116. Nature of the assay: Tumour cell proliferation inhibition, MTT assay, HCT-116. Type of assay: cell-based, human. On the procedure:
as §1
1) The pharmacological test method for the tumour cell proliferation inhibiting activity of the compound of the present invention was as follows:
The first was the determination of in vitro tumour growth inhibitory activity and the preliminary structure-activity relationship study, and different solid tumour cell lines were used to determine the in vitro antitumour activity of the synthesized compounds.
Experimental materials: cell lines: human ovarian cancer cells (OVCAR8), colon adenocarcinoma cells (HCT-116),
Medium: OVCAR8: RPMI 1640+fetal calf serum
Drug preparation method: dissolving the drug in DMSO to make a 50 mM of stock solution, and diluting it to a certain ratio to obtain 5 different concentrations.
Tumour Cells being Cultured In Vitro:
The selected tumour cells were incubated in a, 5% of CO2 cell incubator at 37° C., and passaged until the cell density was 70 to 90% (the adherent cells were passaged with Duck's EDTA) and used for subsequent experiments.
The compound was dissolved in dimethyl sulfoxide (DMSO), diluted, and tumour cells were seeded into 4000 cells/200 μL/well in 96-well plates, and 1 μL of compound was added to each well to a final concentration of 50 μM, 10 μM, 2 μM, and 0.4 μM. 0.08 μM were incubated in a, 5% of CO2 cell incubator at 37° C. for 72 hours with DMSO (1%) as a blank control.
The calculation formula of the cell inhibition rate is: cell inhibition rate %=(control group OD value−drug group OD value)/control cell OD value×100%, and the half inhibition concentration (IC50) was determined by the Bliss method.

Another assay has as its system MCF-7. Nature of the assay: Tumour cell proliferation inhibition, MTT assay, MCF-7. Type of assay: cell-based, human.
The next assay concerns CEM-C1. Nature of the assay: Tumour cell proliferation inhibition, MTT assay, CEM-C1. Type of assay: cell-based, human.
Assay [1] deals with human gastric cancer HGC27 nude mice xenografts. Nature of the assay: In vivo antitumour activity, human gastric cancer HGC27 nude mice xenografts. The settings on record: HGC27 xenograft, 50 mg/kg intragastric once a day. On the procedure: A Sixty-Fifth Embodiment: In Vivo Antitumour Activity of Compounds
1) Establishment of a nude mouse xenograft model: 1×10^7 test tumour cells were injected into the armpit of nude mice, after three generations, HGC27 mouse tumour blocks were dissected and placed in a glass dish containing physiological saline, after the necrotic area was removed by incision, the tumour mass was cut into 1-2 mm^3 and inserted into the left axilla of the nude mouse with a trocar.
2) Animal grouping and drug delivery arrangements: after the tumour grows to an average volume of 100-300 mm^3, 20 mice were randomly grouped according to the tumour volume, and the above test animals were given the corresponding test substances by intragastric administration at a dose of 10 mL/kg with once a day.
3) Data measurement and statistics: The tumour volume was weighed and measured twice and dosing period was 21 days. On the 22nd day, after the body weight was weighed and the tumour volume was measured, the nude mice were sacrificed and the tumours were weighed to calculate the relative tumour volume (RTV), relative tumour growth rate (T/C) and tumour inhibition percentage (IR) for statistical testing. The calculation formula was as follows: (a) TV (tumour volume)=½×a×b^2, wherein a and b represent the length and width of the tumour respectively, (b) RTV (relative tumour volume)=Vt/V0, Where V0 is the tumour volume measured at the time of group administration (i.e. d0), Vt is the tumour volume at each measurement, (c) T/C (%)=TRTV/CRTV×100%, wherein TRTV is the RTV of treatment group, CRTV is the RTV of the solvent control group, (d) IR (%)=(1−TWt/TWc)×100%, wherein TWt is the tumour weight of the treatment group, and TWc is the tumour weight of the solvent control group.

With `Cn1nccc1-c1ccc(C(=O)N[C@@H]2CNCC[C@H]2c2ccc(F)c(F)c2)c(F)c1` (racemic) [VII-32], the IC50 in the assay with HGC27 (Homo sapiens, HGC-27, 72 h) is 60 nM; with 786-O (Homo sapiens, 786-0, 72 h), 910 nM; on AKT1/PKBα, 1 to 10 nM; in the assay with HCT-116 (Homo sapiens, HCT-116, 72 h), 980 nM; with MCF-7 (Homo sapiens, MCF7, 72 h) it was 1980 nM; in the assay on CEM-C1 (Homo sapiens, CEM/C1, 72 h), 70 nM.
Take `Cn1ncc(F)c1-c1ccc(C(=O)N[C@@H]2CNCC[C@H]2c2ccc(F)c(F)c2)c(F)c1` [VII-7]: the IC50 in the assay with HGC27 (Homo sapiens, HGC-27, 72 h) was 60 nM; in the assay with 786-O (Homo sapiens, 786-0, 72 h), 990 nM; on AKT1/PKBα, 10 to 50 nM; in the assay on HCT-116 (Homo sapiens, HCT-116, 72 h) it was 2390 nM; with MCF-7 (Homo sapiens, MCF7, 72 h) it was 2840 nM; in the assay with CEM-C1 (Homo sapiens, CEM/C1, 72 h) it was 90 nM.
Turning to `Cn1nccc1-c1ccc(C(=O)N[C@@H]2CNCC[C@H]2c2ccc(F)c(F)c2)c(F)c1.O=C(O)C[C@H](O)C(=O)O` [VII-30, L-malate], the IC50 was 30 nM with HGC27 (72 hours, L-malate); 550 nM in the assay on 786-O (Homo sapiens, 786-0, 72 h); 1 to 10 nM on AKT1/PKBα; 1990 nM with HCT-116 (72 hours, L-malate); 1580 nM with MCF-7 (72 hours, L-malate); 80 nM in the assay on CEM-C1 (Homo sapiens, CEM/C1, 72 h).
As for `Cn1nccc1-c1ccc(C(=O)N[C@@H]2CNCC[C@H]2c2ccc(F)c(F)c2)c(F)c1` [VII-31, D-malate], the IC50 was 10 nM in the assay with HGC27 (72 hours, D-malate); 650 nM in the assay on 786-O (72 hours, D-malate); 1 to 10 nM at AKT1/PKBα; 1520 nM with HCT-116 (72 hours, D-malate); 2960 nM in the assay on MCF-7 (72 hours, D-malate); 100 nM in the assay on CEM-C1 (72 hours, D-malate).
In the case of `Cn1nccc1-c1ccc(C(=O)N[C@@H]2CNCC[C@H]2c2ccc(F)c(F)c2)c(F)c1.O=C(O)C(O)C(O)C(=O)O` [VII-33, L-tartrate], the IC50 in the assay on HGC27 (72 hours, L-tartrate) is 40 nM; in the assay with 786-O (72 hours, L-tartrate), 820 nM; on AKT1/PKBα, 1 to 10 nM; in the assay with HCT-116 (72 hours, L-tartrate) it was 3100 nM; in the assay with MCF-7 (72 hours, L-tartrate), 2250 nM; in the assay on CEM-C1 (72 hours, L-tartrate), 90 nM.
In the case of `Cn1nccc1-c1ccc(C(=O)N[C@@H]2CNCC[C@H]2c2ccc(F)c(F)c2)c(F)c1` [VII-34, D-tartrate], the IC50 was 30 nM with HGC27 (72 hours, D-tartrate); 1060 nM in the assay with 786-O (72 hours, D-tartrate); 1 to 10 nM at AKT1/PKBα; 2150 nM in the assay with HCT-116 (72 hours, D-tartrate); 3090 nM in the assay with MCF-7 (72 hours, D-tartrate); 130 nM in the assay on CEM-C1 (72 hours, D-tartrate).
As for `Cn1nccc1-c1ccc(C(=O)N[C@@H]2CNCC[C@H]2c2ccc(F)c(F)c2)c(F)c1` [VII-37, citrate], the IC50 in the assay on HGC27 (72 hours, citrate) was 50 nM; in the assay with 786-O (72 hours, citrate), 670 nM; on AKT1/PKBα, 1 to 10 nM; in the assay with HCT-116 (72 hours, citrate) it was 1060 nM; with MCF-7 (72 hours, citrate) it was 1360 nM; in the assay on CEM-C1 (72 hours, citrate) it was 110 nM.
For `Cn1nccc1-c1ccc(C(=O)N[C@@H]2CNCC[C@H]2c2ccc(F)c(F)c2)cc1` [drawing 111, reference compound], the IC50 in the assay with HGC27 (Homo sapiens, HGC-27, 72 h) is 190 nM; in the assay with 786-O (Homo sapiens, 786-0, 72 h), 2060 nM; at AKT1/PKBα, 10 to 50 nM; in the assay on HCT-116 (Homo sapiens, HCT-116, 72 h), 10500 nM; in the assay with MCF-7 (Homo sapiens, MCF7, 72 h), 10600 nM; in the assay on CEM-C1 (Homo sapiens, CEM/C1, 72 h) it was 620 nM.
Regarding `Cn1nccc1-c1ccc(C(=O)N[C@@H]2CNCC[C@H]2c2ccc(F)c(F)c2)cc1` [drawing 115, reference compound], in assay [1], the RTV is 22.60 ± 12.41 and the “T/C(%)” value was determined as 53.75%. For the same compound, in assay [1] (D1 (start)), the “Tumour volume D1” value was 216 ± 98 mm^3. For the same compound, the “Tumour volume D22” value in assay [1] (D22) is 1650 ± 720* mm^3.
For `Cn1ncc(Cl)c1-c1ccc(C(=O)N[C@@H]2CNCC[C@H]2c2ccc(F)c(F)c2)cc1F` [reference compound], the IC50 is 120 nM in the assay with HGC27 (Homo sapiens, HGC-27, 72 h); 1280 nM in the assay with 786-O (Homo sapiens, 786-0, 72 h); 10 to 50 nM on AKT1/PKBα; 5860 nM with HCT-116 (Homo sapiens, HCT-116, 72 h); 6320 nM with MCF-7 (Homo sapiens, MCF7, 72 h); 570 nM in the assay on CEM-C1 (Homo sapiens, CEM/C1, 72 h).
Take `Cn1ncc(Cl)c1-c1ccc(C(=O)N[C@@H]2CNCC[C@H]2c2ccc(Cl)cc2)c(C(F)(F)F)c1` [reference compound]: the IC50 with HGC27 (Homo sapiens, HGC-27, 72 h) is 180 nM; with 786-O (Homo sapiens, 786-0, 72 h) it was 2990 nM; at AKT1/PKBα it was 1 to 10 nM; with HCT-116 (Homo sapiens, HCT-116, 72 h), 6150 nM; in the assay with MCF-7 (Homo sapiens, MCF7, 72 h), 5130 nM; in the assay with CEM-C1 (Homo sapiens, CEM/C1, 72 h), 440 nM.
